From paper PMC7488365 (Acta Pharmaceutica Sinica. B, 2019)

Tests used:
[1] = system: HGC-27 cells; assay: Cell cycle assay; format: cell-based, human; settings: HGC-27, 24 h
[2] = system: MGC-803 cells; assay: Transwell migration assay, MGC-803; format: cell-based, human; settings: MGC-803, 48 h
[3] = system: MGC-803 cells; assay: Colony formation, MGC-803; format: cell-based, human; settings: MGC-803, 0.75, 1.5 and 3.0 μmol/L, 8 days
[4] = system: HGC-27 cells; assay: MTT cell viability assay, HGC-27; settings: Homo sapiens, HGC-27, 72 h, read-out: IC50 cell viability HGC-27
[5] = system: USP28, LSD1 and total c-Myc in HGC-27 cells; assay: Western blotting of USP28, LSD1 and total c-Myc; format: cell-based, human; settings: HGC-27, 3 h, Western blotting
[6] = target: T1, USP28 in HGC-27 cells (Homo sapiens, UniProt Q96RU2); assay: Cellular thermal shift target engagement assay, HGC-27; format: cell-based; settings: HGC-27, 0.75 μmol/L, 3 h, 60 °C
T1 sequence (Q96RU2 1-1077): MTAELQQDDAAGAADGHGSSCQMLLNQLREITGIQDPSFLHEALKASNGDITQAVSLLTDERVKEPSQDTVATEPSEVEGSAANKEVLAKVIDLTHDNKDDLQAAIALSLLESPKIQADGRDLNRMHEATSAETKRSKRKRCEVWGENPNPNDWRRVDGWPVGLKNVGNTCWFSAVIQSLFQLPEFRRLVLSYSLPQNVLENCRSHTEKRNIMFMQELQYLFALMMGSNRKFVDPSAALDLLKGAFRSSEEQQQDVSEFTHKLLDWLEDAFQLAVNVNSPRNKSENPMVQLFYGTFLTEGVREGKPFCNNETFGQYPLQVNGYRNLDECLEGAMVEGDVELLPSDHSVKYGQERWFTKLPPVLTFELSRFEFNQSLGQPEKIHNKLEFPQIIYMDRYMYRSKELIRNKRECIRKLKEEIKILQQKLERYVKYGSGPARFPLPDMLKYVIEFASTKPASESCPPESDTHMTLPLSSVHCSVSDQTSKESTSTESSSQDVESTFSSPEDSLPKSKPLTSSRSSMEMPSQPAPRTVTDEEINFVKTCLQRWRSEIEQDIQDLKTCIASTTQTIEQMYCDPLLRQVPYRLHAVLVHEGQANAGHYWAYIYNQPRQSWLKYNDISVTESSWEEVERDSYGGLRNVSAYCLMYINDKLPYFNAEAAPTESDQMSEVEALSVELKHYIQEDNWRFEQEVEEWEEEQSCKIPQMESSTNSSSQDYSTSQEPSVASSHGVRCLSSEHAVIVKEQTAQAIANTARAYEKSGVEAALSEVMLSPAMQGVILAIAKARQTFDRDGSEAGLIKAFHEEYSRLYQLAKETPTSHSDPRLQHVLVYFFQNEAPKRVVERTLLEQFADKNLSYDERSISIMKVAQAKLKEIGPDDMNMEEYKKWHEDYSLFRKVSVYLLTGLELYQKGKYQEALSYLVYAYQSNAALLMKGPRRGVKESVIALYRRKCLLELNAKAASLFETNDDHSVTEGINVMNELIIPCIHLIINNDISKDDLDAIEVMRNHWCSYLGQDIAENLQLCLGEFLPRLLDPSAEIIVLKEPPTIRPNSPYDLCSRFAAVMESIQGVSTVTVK

[7] = system: HGC-27 cells; assay: Transwell migration assay, HGC-27; format: cell-based, human; settings: HGC-27, 48 h
[8] = system: MKN45 cells; assay: cells; settings: Homo sapiens, MKN-45, 72 h, read-out: IC50 cell viability MKN45
[9] = system: HGC-27 cells; assay: Annexin V-FITC/PI apoptosis analysis; format: cell-based, human
[10] = system: HGC-27 cells; assay: Colony formation, HGC-27; format: cell-based, human; settings: HGC-27, 0.75, 1.5 and 3.0 μmol/L, 8 days
[11] = system: HGC-27 cells; assay: EdU incorporation assay; format: cell-based, human
[12] = target: T2, USP28 (Homo sapiens, UniProt Q96RU2); assay: biochemical; format: biochemical; settings: read-out: Inhibition rate at 12.5 μmol/L (%)
T2 sequence (Q96RU2 1-700): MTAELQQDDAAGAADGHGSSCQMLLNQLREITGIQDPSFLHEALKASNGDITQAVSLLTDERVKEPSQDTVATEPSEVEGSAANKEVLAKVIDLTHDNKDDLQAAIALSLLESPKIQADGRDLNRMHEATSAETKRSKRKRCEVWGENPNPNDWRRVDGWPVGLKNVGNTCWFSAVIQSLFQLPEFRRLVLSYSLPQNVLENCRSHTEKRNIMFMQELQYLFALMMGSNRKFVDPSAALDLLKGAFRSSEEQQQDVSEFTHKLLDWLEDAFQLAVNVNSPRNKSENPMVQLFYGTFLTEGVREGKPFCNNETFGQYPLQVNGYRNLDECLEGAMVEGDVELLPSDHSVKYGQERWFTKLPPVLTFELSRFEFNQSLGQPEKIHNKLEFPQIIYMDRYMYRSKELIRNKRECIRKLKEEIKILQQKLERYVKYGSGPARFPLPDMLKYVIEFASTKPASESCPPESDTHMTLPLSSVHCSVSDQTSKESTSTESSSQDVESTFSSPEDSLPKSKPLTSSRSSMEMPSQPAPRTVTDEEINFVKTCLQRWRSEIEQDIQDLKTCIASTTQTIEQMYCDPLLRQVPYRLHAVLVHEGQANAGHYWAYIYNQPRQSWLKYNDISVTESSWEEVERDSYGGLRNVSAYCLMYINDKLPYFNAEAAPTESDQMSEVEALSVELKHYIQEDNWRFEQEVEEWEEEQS

[13] = target: LSD1 (Homo sapiens, UniProt O60341); assay: Enzymatic inhibitory activity against LSD1; format: biochemical
[14] = target: USP7 (Homo sapiens, UniProt Q93009); assay: Enzymatic inhibitory activity against USP7; format: biochemical
[15] = target: T2, USP28; assay: Bio-layer interferometry; format: binding
[16] = system: HGC-27 cells; assay: Wound healing assay, HGC-27; format: cell-based, human; settings: HGC-27, 48 h
[17] = system: GES-1 cells; assay: cells; settings: Homo sapiens, GES1, 72 h, read-out: IC50 cell viability GES-1
[18] = system: MGC-803 cells; assay: cells; settings: Homo sapiens, MGC-803, 72 h, read-out: IC50 cell viability MGC-803
[19] = target: T3, USP28 in MGC-803 cells (Homo sapiens, UniProt Q96RU2); assay: Cellular thermal shift target engagement assay, MGC-803; format: cell-based; settings: MGC-803, 0.75 μmol/L, 3 h, 60 °C
T3 sequence (Q96RU2 1-1077): T1 sequence (Q96RU2 1-1077)

[20] = system: MGC-803 cells; assay: Wound healing assay, MGC-803; format: cell-based, human; settings: MGC-803, 48 h

Chain of USP7 (Q93009 whole entry, species assumed): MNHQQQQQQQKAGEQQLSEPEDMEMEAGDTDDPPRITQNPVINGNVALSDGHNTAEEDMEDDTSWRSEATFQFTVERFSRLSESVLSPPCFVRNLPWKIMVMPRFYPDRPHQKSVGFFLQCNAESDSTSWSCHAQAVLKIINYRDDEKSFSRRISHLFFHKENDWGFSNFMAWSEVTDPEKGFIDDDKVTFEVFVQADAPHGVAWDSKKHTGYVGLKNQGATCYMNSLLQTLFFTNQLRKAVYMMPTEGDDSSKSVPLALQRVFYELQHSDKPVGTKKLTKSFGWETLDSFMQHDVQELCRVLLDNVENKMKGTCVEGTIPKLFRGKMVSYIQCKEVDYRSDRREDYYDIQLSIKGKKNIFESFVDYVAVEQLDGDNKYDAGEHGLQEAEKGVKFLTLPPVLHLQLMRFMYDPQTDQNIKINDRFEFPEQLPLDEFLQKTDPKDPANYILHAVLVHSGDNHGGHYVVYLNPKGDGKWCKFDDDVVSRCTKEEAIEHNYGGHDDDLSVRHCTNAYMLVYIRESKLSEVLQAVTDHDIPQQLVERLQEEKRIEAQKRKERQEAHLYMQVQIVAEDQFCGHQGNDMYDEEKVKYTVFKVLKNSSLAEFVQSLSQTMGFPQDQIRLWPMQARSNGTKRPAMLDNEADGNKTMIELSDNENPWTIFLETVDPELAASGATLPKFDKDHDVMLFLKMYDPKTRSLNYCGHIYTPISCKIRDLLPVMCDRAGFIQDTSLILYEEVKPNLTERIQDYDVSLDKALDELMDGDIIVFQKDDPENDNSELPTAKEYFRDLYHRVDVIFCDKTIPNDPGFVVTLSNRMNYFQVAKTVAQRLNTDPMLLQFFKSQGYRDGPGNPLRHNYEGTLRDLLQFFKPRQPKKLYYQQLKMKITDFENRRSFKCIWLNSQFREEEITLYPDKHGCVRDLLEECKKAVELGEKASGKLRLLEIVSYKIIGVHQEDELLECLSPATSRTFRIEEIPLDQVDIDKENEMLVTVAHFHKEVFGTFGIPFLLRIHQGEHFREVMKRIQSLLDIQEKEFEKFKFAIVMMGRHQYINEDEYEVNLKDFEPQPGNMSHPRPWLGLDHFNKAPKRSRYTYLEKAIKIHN

CCCSc1nc(NCCN)c2nnn(Cc3ccc(Cl)cc3)c2n1 [Compound 19, N^1-(3-(4-Chlorobenzyl)-5-(propylthio)-3H-[1,2,3]triazolo[4,5-d]pyrimidin-7-yl)ethane-1,2-diamine]
percentage of cells in S phase ([1]; 0.18 μmol/L): 36.02%
percentage of cells in S phase ([1]; 0.37 μmol/L): 38.58%
percentage of cells in S phase ([1]; 0.75 μmol/L): 39.27%
percentage of cells in S phase ([1]; 1.5 μmol/L): 42.98%
cell migration (Transwell) [2]: apparently inhibited cell migration
colony formation [3]: dose-dependently inhibited colony formation
IC50 [4]: 610 ± 450 nM
USP28 expression [5]: decreased in a dose-dependent manner
protein levels of LSD1 and total c-Myc [5]: decreased correspondingly
USP28 thermal stabilization (CTSA) [6]: stabilized
cell migration (Transwell) [7]: apparently inhibited cell migration
IC50 [8]: 1490 ± 980 nM
apoptotic rate (Annexin V-FITC/PI, Q2) ([9]; HGC-27, 0.18 μmol/L): 6.5%
apoptotic rate (Annexin V-FITC/PI, Q2) ([9]; HGC-27, 0.37 μmol/L): 9.3%
apoptotic rate (Annexin V-FITC/PI, Q2) ([9]; HGC-27, 0.75 μmol/L): 10.5%
apoptotic rate (Annexin V-FITC/PI, Q2) ([9]; HGC-27, 1.5 μmol/L): 21.2%
colony formation [10]: dose-dependently inhibited colony formation
DNA proliferation (EdU) [11]: suppressed DNA proliferation
inhibition at 12.5 µM [12]: 90%
IC50 [13]: > 100 µM
IC50 [14]: > 100 µM
Kd [15]: 40 nM
wound healing [16]: apparently suppressed the wound healing
IC50 [17]: 9.19 ± 1.15 µM
IC50 [18]: 4.95 ± 0.33 µM
USP28 thermal stabilization (CTSA) [19]: stabilized
wound healing [20]: apparently suppressed the wound healing
